In series [1] the test system is Human immunodeficiency virus 1. In words: Antiviral activity against Human immunodeficiency virus 1 3B. The class given is functional, organism-based.
The subject of series [2] is Human immunodeficiency virus 1. The series is described as follows: Antiviral activity against Human immunodeficiency virus 1 infected in human MT4 cells. The class given is functional, organism-based. Particulars: Human immunodeficiency virus 1, MT4.
Series [3] in a line: Selectivity index, ratio of human MT4 cytotoxicity to inhibition of HIV1 cytopathicity. As to conditions: MT4 cells, read-out: Selectivity Index. The class given is toxicity. (In general: Damage to the host cells serves as the signal in cytopathic effect assays.)
For series [4], the system named is Human immunodeficiency virus type 1 reverse transcriptase (Human immunodeficiency virus 1), Q72547 [K103N]. The series is described as follows: Inhibition of HIV reverse transcriptase K103N mutant.
Series [5] deals with Human immunodeficiency virus. The series is described as follows: Inhibition of wild-type HIV reverse transcriptase.
For series [6], the target named is T1, Human immunodeficiency virus type 1 reverse transcriptase (Human immunodeficiency virus 1, UniProt Q72547). In words: Inhibition of HIV1 reverse transcriptase.
Series [7] addresses Human immunodeficiency virus type 1 reverse transcriptase (Human immunodeficiency virus 1, UniProt Q72547, Y181C). The series is described as follows: Inhibition of HIV1 reverse transcriptase Y181C mutant.
Series [8] concerns the target Human immunodeficiency virus type 1 reverse transcriptase (Human immunodeficiency virus 1, UniProt Q72547, K103N). The series is described as follows: Inhibition of HIV1 reverse transcriptase K103N mutant.
Series [9] concerns the target T1, Human immunodeficiency virus type 1 reverse transcriptase. In words: Inhibition of wild-type HIV1 reverse transcriptase.

Molecules are shown by their SMILES.

`CC(C)=CCOc1cc(NC(=S)c2ccsc2C)ccc1Cl`: a half-maximal response in series [1] (EC50) required 15 nM.

In series [2], `COc1ccccc1NC(C(N)=O)c1c(Cl)cccc1Cl` (stereo not given) came in with an EC50 of 610 nM. In addition, the selectivity ratio in series [3] was 10000.

On to `CCC1(c2cccc(OC)c2)Oc2ccccc2-n2cccc2C1=O` (stereo not given), for which the INH in series [4] came out at 0.022 µM; in series [5], 0.05 µM.

Turning to `CC(C)=CCOc1cc(NC(=S)c2ccoc2C)ccc1Cl` [UC 781], the concentration giving a half-maximal response (EC50) in [1] stood at 15 nM.

The molecule `CC(=O)c1ccc(C)cc1NC(C(N)=O)c1c(Cl)cccc1Cl` (stereo not given) [LOVIRIDE] came in with an EC50 in series [2] of 13 nM. For the same molecule, in series [3], the selectivity ratio was 10000.

In [6], `CCN(CC)CCOc1ccc(NC(=O)COc2ccccc2C(=O)c2ccc(OC)cc2)cc1` had an IC50 of 21000 nM.

Consider `CC(C)=CCN1Cc2c(Cl)ccc3[nH]c(=S)n(c23)C[C@@H]1C` [TIVIRAPINE], for which the midpoint of the response in series [2], the EC50, lay at 4.3 nM.

Turning to `C=CCN1Cc2cccc3[nH]c(=O)n(c23)CC1C` (stereo not given), a half-maximal effect in series [2] (EC50) was put at 62000 nM.

On to `Cc1cc(S(N)(=O)=O)ccc1NC(=O)COc1ccc(Cl)cc1C(=O)c1cc(F)cc(C(F)(F)F)c1`, for which the IC50 was less than 10 nM in series [7], less than 10 nM in series [8] and less than 2 nM in series [9].

On to `CC1=C(C(=O)Nc2ccc(Cl)c(C(=O)OC(C)C)c2)SCCO1`, for which the EC50 in series [1] worked out at 15 nM.

A word on the EC50: it is the concentration needed to bring the measured effect to its halfway point. In general, IC50 refers to the concentration needed to halve the response being measured. Low values mean inhibition by little substance, high ones a need for much substance.

Values taken from ChEMBL document CHEMBL1152512, “The search for potent, small molecule NNRTIs: A review” (Bioorg Med Chem, 2009).
